Earlier results on two compounds are cited in US20110268798A1, “ORALLY DISNTEGRATING TABLETS FOR THE TREATMENT OF PAIN” (ADD ADVANCED DRUG DELIVERY TECHNOLOGIES LTD, priority 2009, published 2011).

SMILES strings stand for the structures.

Test in data set [1]: not given
The source holds these as a separate data set.

In the case of `CC(=O)Nc1ccc(O)cc1` [Acetaminophen, N-(4-hydroxyphenyl)acetamide], the solubility in ether entry is on record as “very slightly soluble” and the solubility in water result is on record as “sparingly soluble”. Besides, where the note is “methylene chloride”, the “solubility in methylene chloride” value is “very slightly soluble”.
For `CC(=O)Oc1ccccc1C(=O)O` [Acetylsalicylic acid, 2(acetyloxy)benzoic acid], the solubility in ether entry is given as “soluble” and the solubility in water result is “slightly soluble”. For the same compound, under “alcohol”, the solubility in alcohol result is on record as “freely soluble”. In addition, under “chloroform”, the solubility in chloroform entry is on record as “soluble”. For the same compound, the “stability in air / moisture” value in data set [1] (dry air, moisture) is “stable in dry air but hydrolyses in contact with moisture to acetic and salicylic acids”. The “stability versus pH” value in data set [1] (pH) is listed as “pH-dependent stability profile”. The stability versus temperature entry in data set [1] (temperature) is on record as “sensitive to temperature”.
